In the NIST ThermoML archive (doi:10.1021/je060026r):

Assay: excess molar enthalpy (molar enthalpy of mixing); xn = mol fraction of the nth substance listed
Details: 313.15 K, 101 kPa, Liquid, Flow calorimetry

COCC(C)O (stereo unspecified) [1-methoxy-2-propanol] + C1CCCCC1
Details | excess molar enthalpy [kcal/mol]
x1 = 0.0547 | 0.14
x1 = 0.109 | 0.213
x1 = 0.1626 | 0.261
x1 = 0.2158 | 0.295
x1 = 0.2684 | 0.319
x1 = 0.3205 | 0.333
x1 = 0.3721 | 0.341
x1 = 0.4232 | 0.344
x1 = 0.4738 | 0.341
x1 = 0.5239 | 0.335
x1 = 0.5736 | 0.321
x1 = 0.6227 | 0.305
x1 = 0.6715 | 0.283
x1 = 0.7197 | 0.258
x1 = 0.7675 | 0.227
x1 = 0.8149 | 0.191
x1 = 0.8618 | 0.15
x1 = 0.9083 | 0.105
x1 = 0.9544 | 0.0542

COCC(C)O (stereo unspecified) [1-methoxy-2-propanol] + c1ccccc1
Details | excess molar enthalpy [kcal/mol]
x1 = 0.0455 | 0.0767
x1 = 0.0914 | 0.124
x1 = 0.1377 | 0.155
x1 = 0.1845 | 0.176
x1 = 0.2317 | 0.188
x1 = 0.2794 | 0.194
x1 = 0.3276 | 0.195
x1 = 0.3763 | 0.193
x1 = 0.4254 | 0.186
x1 = 0.475 | 0.179
x1 = 0.5251 | 0.167
x1 = 0.5758 | 0.153
x1 = 0.6269 | 0.139
x1 = 0.6786 | 0.122
x1 = 0.7308 | 0.103
x1 = 0.7835 | 0.084
x1 = 0.8368 | 0.0643
x1 = 0.8906 | 0.0434
x1 = 0.945 | 0.0216

CCCCOCCO [2-butoxyethan-1-ol] + C1CCCCC1
Details | excess molar enthalpy [kcal/mol]
x2 = 0.0414 | 0.0997
x2 = 0.0836 | 0.149
x2 = 0.1265 | 0.183
x2 = 0.1702 | 0.207
x2 = 0.2148 | 0.222
x2 = 0.2602 | 0.233
x2 = 0.3065 | 0.24
x2 = 0.3536 | 0.243
x2 = 0.4017 | 0.242
x2 = 0.4507 | 0.238
x2 = 0.5007 | 0.229
x2 = 0.5518 | 0.219
x2 = 0.6038 | 0.204
x2 = 0.6569 | 0.186
x2 = 0.7111 | 0.165
x2 = 0.7665 | 0.139
x2 = 0.823 | 0.11
x2 = 0.8807 | 0.077
x2 = 0.9397 | 0.0402

CCCCOCCO [2-butoxyethan-1-ol] + c1ccccc1
Details | excess molar enthalpy [kcal/mol]
x2 = 0.0343 | 0.0612
x2 = 0.0698 | 0.1
x2 = 0.1064 | 0.126
x2 = 0.1444 | 0.145
x2 = 0.1836 | 0.156
x2 = 0.2243 | 0.162
x2 = 0.2665 | 0.165
x2 = 0.3103 | 0.163
x2 = 0.3557 | 0.159
x2 = 0.4029 | 0.153
x2 = 0.452 | 0.144
x2 = 0.503 | 0.133
x2 = 0.5562 | 0.119
x2 = 0.6116 | 0.105
x2 = 0.6694 | 0.0891
x2 = 0.7297 | 0.0726
x2 = 0.7927 | 0.0544
x2 = 0.8586 | 0.0359
x2 = 0.9277 | 0.0175
